Target: T1, MST4 (Homo sapiens, UniProt Q9P289)
T1 construct: purchased Thermo Fisher Scientific (Life Technologies) SelectScreen
Assay: SelectScreen Z'LYTE
Format: biochemical
Summary of the method: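 SelectScreen broad panel; activity (Z'LYTE, Adapta) plus binding formats. ATP: Km app for CSF1R Z'LYTE; 10 for CAMK1 Adapta. Readout = % per kinase.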

T1 sequence (Q9P289 whole entry): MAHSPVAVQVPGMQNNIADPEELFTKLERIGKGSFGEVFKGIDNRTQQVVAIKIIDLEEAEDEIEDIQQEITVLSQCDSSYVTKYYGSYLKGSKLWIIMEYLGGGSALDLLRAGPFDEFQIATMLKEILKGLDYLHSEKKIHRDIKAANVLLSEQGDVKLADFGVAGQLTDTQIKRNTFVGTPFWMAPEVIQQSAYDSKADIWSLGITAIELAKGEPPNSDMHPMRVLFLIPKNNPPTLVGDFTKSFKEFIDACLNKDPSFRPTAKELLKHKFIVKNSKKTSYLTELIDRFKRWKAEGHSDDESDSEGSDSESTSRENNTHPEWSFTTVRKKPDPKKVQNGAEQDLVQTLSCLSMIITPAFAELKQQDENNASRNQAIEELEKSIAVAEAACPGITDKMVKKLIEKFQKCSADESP

## CN(C(=O)CN1CCOCC1)c1ccc2sc3c(-c4cccc5c(=O)cc(N6CC7CCC(C6)O7)oc45)cccc3c2c1 [NU5455]
  inhibition at 1 µM: 6.9%
